Experiments:
[1] = tested on: CXCL8 induced human PMN chemotaxis; experiment: IL-8 (CXCL8) induced PMN chemotaxis; assay type: cell-based; settings: drug concentration 10^−8M, Table 1
[2] = tested on: C5a induced human PMN chemotaxis; settings: previously reported; cited from earlier work
[3] = tested on: C5a induced human PMN chemotaxis; experiment: C5a induced chemotaxis of human PMNs (microchamber assay); assay type: cell-based; settings: for inhibitory activity on C5a induced PMN chemotaxis at high drug concentration: c=10^−6M; for C5a (10^−6M): drug concentration 10^−6M, PMN chemotaxis, Table 1, n.a. = not active
[4] = tested on: C5a induced human PMN chemotaxis; experiment: as above; assay type: cell-based; settings: for inhibitory activity on C5a: compounds lacking the additional hydrogen bond acceptor group; for inhibition at 0.1 µM / inhibition at 0.01 µM: Homo sapiens, read-out: % inhibition C5a induced PMN migration; for inhibition at 0.1 µM: drug concentration: 10^−7 M (footnote a); for inhibition at 0.01 µM: drug concentration: 10^−8 M (footnote b)
Method: The compounds of the invention of formula (I) were evaluated in vitro for their ability to inhibit chemotaxis of polymorphonucleate leukocytes (hereinafter referred to as PMNs) and monocytes induced by the fractions of the complement C5a and C5a-desArg. For this purpose, to isolate the PMNs from heparinized human blood, taken from healthy adult volunteers, mononucleates were removed by means of sedimentation on dextran (according to the procedure disclosed by W. J. Ming et al., J. Immunol., 138, 1469, 1987) and red blood cells by a hypotonic solution. The cell vitality was calculated by exclusion with Trypan blue, whilst the ratio of the circulating polymorphonucleates was estimated on the cytocentrifugate after staining with Diff Quick.
Human recombinant fractions C5a and C5a-desArg (Sigma) were used as stimulating agents in the chemotaxis experiments, giving practically identical results.
The lyophilized C5a was dissolved in a volume of HBSS containing 0.2% bovin serum albumin BSA so thus to obtain a stock solution having a concentration of 10^−5 M to be diluted in HBSS to a concentration of 10^−9 M, for the chemotaxis assays.
In the chemotaxis experiments, the PMNs were incubated with the compounds of the invention of formula (I) for 15′ at 37° C. in an atmosphere containing 5% CO2. The chemotactic activity of the C5a was evaluated on human circulating polymorphonucleates (PMNs) resuspended in HBSS at a concentration of 1.5×10^6 PMNs per mL.
During the chemotaxis assay (according to W. Falket et al., J. Immunol. Methods, 33, 239, 1980) PVP-free filters with a porosity of 5 μm and microchambers suitable for replication were used.
The compounds of the invention in formula (I) were evaluated at a concentration ranging between 10^−7 and 10^−10 M; for this purpose they were added, at the same concentration, both to the lower pores and the upper pores of the microchamber. The wells in the lower part contain the solution of C5a or the simple carrier, those in the upper part contain the suspension of PMNs.
Inhibition of C5a-induced chemotactic activity by the individual compounds of the invention of formula (I) was evaluated by incubating the microchamber for the chemotaxis for 60 min at 37° C. in an atmosphere containing 5% CO2.
By way of example, the inhibition data of the chemotaxis of PMN (concentration range between 10^−7 and 10^−8 M) of some representative compounds of the invention are reported in Table 2.

Row | Structure (SMILES) | inhibition at 0.1 µM [4] [%] | inhibition at 0.01 µM [4] [%] | also measured
1 | C[C@@H](C(N)=O)c1cccc(C(=O)c2ccccc2)c1 [(R)-2-(3-benzoylphenyl)propionamide] | – | – | IL-8 (10^−8M) [1]: 37 ± 7; activity on the C5a induced PMN chemotaxis [2]: negligible activity; inhibitory activity on C5a induced PMN chemotaxis at high drug concentration [3]: moderate inhibitory activity; C5a (10^−6M) [3]: 30 ± 2
2 | CC(C)c1cccc([C@@H](C)C(N)=O)c1 [(R)-2-(3-isopropylphenyl)propionamide, reference compound] | – | – | inhibitory activity on C5a [4]: do not exhibit any inhibitory activity; IL-8 (10^−8M) [1]: 60 ± 5
3 | CC(C)Cc1ccc([C@@H](C)C(N)=O)cc1 [(R)-2-(4-isobutylphenyl)propionamide, reference compound] | – | – | inhibitory activity on C5a [4]: do not exhibit any inhibitory activity; IL-8 (10^−8M) [1]: 57 ± 12
4 | CC(C)C(=O)c1cccc([C@@H](C)C(N)=O)c1 [Example 1, (R)-2-[3-(isobutyryl)phenyl]propionamide] | 50 ± 7 | – | –
5 | C[C@@H](C(N)=O)c1cccc(C(=O)C2CCCC2)c1 [Example 2, (R)-2-[3-(cyclopentanecarbonyl)phenyl]propionamide] | 59 ± 16 | – | –
6 | C[C@@H](C(N)=O)c1cccc(C(=O)c2ccco2)c1 [Example 3] | 65 ± 6 | – | –
7 | C[C@@H](C(N)=O)c1cccc(C(=O)c2cc3ccccc3o2)c1 [Example 4, (R)-2-[3-(2-benzofuran-2-carbonyl)phenyl]propionamide] | – | 55 ± 7 | –
8 | C[C@@H](C(N)=O)c1cccc(C(=O)c2nccs2)c1 [Example 5, (R)-2-[3-(thiazole-2-ylcarbonyl)phenyl]propionamide] | – | 31 ± 7 | –
9 | C[C@@H](C(N)=O)c1cccc(C(=O)c2ncco2)c1 [Example 6, (R)-2-[3-(1,3-oxazol-2-ylcarbonyl)phenyl]propionamide] | – | 26 ± 6 | –
10 | C[C@@H](C(N)=O)c1cccc(C(=O)Nc2c(Cl)cccc2Cl)c1 [Example 7, 3-((R)-1-carbamoylethyl)-N-(2,6-dichlorophenyl)benzamide] | 57 ± 8 | – | –
11 | Cc1cccc(C)c1NC(=O)c1cccc([C@@H](C)C(N)=O)c1 [Example 8, 3-((R)-1-carbamoylethyl)-N-(2,6-dimethylphenyl)benzamide] | 65 ± 10 | – | –
12 | C[C@@H](C(N)=O)c1cccc(C(=O)Nc2ncccc2Cl)c1 [Example 9, 3-((R)-1-carbamoylethyl)-N-(3-chloropyridin-2-yl)benzamide] | 40 ± 2 | – | –
13 | COc1ccccc1Oc1cccc([C@@H](C)C(N)=O)c1 [Example 10, (R)-2-[3-(2-methoxyphenoxy)phenyl]propionamide] | – | 55 ± 6 | –
14 | C[C@@H](C(N)=O)c1cccc(Nc2ccccc2Cl)c1 [Example 11, (R)-2-[3-(2-chlorophenylamino)phenyl]propionamide] | 42 ± 5 | – | –
15 | COc1ccccc1Nc1cccc([C@@H](C)C(N)=O)c1 [Example 12, (R)-2-[3-(2-methoxyphenylamino)phenyl]propionamide] | 60 ± 8 | – | –
16 | C[C@@H](C(N)=O)c1cccc(Nc2ccccn2)c1 [Example 13, (R)-2-[3-(pyridin-2-ylamino)phenyl]propionamide] | 38 ± 3 | – | –
17 | C[C@@H](C(N)=O)c1cccc(-c2ncco2)c1 [Example 14] | 63 ± 9 | – | –
18 | C[C@@H](C(N)=O)c1cccc(-c2ccco2)c1 [Example 15] | 41 ± 7 | – | –
19 | C[C@@H](C(N)=O)c1ccc2c(c1)NC(=O)CC2 [Example 16, (R)-2-(oxo-1,2,3,4-tetrahydroquinolin-7-yl)propionamide] | – | 45 ± 10 | –
20 | C[C@@H](C(N)=O)c1cccc(S(=O)(=O)c2ccccc2)c1 [Example 17, (R)-2-(3-benzenesulfonylphenyl)propionamide] | 54 ± 7 | – | –

Row | Structure (SMILES) | inhibition at 0.1 µM [4] [%] | inhibition at 0.01 µM [4] [%] | also measured
21 | CC(=O)Nc1cccc(C(C)C(N)=O)c1 (stereo not drawn) [Example 18, 2-(3-acetylamino)phenyl propionamide] | 83 ± 2 | – | –
22 | CC(C(N)=O)c1cccc(NC(=O)c2ccccc2)c1 (stereo not drawn) [Example 19, 2-(3-benzoylamino)phenyl propionamide] | 34 ± 11 | – | –
23 | C[C@@H](C(=O)NS(C)(=O)=O)c1cccc(C(=O)C2CCCC2)c1 [Example 20, N—[(R)-2-(3-cyclopentanecarbonylphenyl)propionyl]methanesulfonamide] | 22 ± 2 | – | –
24 | C[C@@H](C(=O)NS(C)(=O)=O)c1cccc(C(=O)c2ccco2)c1 [Example 21] | – | 61 ± 15 | –
25 | Cc1ccc(C(=O)c2cccc([C@@H](C)C(=O)NS(C)(=O)=O)c2)o1 [Example 22] | – | 53 ± 6 | –
26 | C[C@@H](C(=O)NS(C)(=O)=O)c1cccc(C(=O)c2cccs2)c1 [Example 23] | 37 ± 11 | – | –
27 | C[C@@H](C(=O)NS(C)(=O)=O)c1cccc(C(=O)c2cc3ccccc3o2)c1 [Example 24] | – | – | % inhibition C5a induced PMN migration ([4]; drug concentration not marked): 53 ± 5%
28 | C[C@@H](C(=O)NS(C)(=O)=O)c1cccc(C(=O)c2ncco2)c1 [Example 25] | 38 ± 8 | – | –
29 | C[C@@H](C(=O)Nc1ccccn1)c1cccc(C(=O)c2ccco2)c1 [Example 26, (R)-2-[3-(furan-2-carbonyl)phenyl]-N-pyrid-2-yl propionamide] | – | 45 ± 9 | –
30 | C[C@@H](C(=O)Nc1nccs1)c1cccc(C(=O)c2ccco2)c1 [Example 27, (R)-2-[3-(furan-2-carbonyl)phenyl]-N-(2H-thiazol-2-yl)propionamide] | – | 60 ± 5 | –
31 | C[C@@H](C(=O)Nc1nc(C(F)(F)F)cs1)c1cccc(C(=O)c2ccco2)c1 [Example 28, (R)-2-[3-(furan-2-carbonyl)phenyl]-N-(4-trifluoromethyl-2H-thiazol-2-yl)propionamide] | – | 49 ± 9 | –
32 | C[C@@H](C(=O)Nc1nc(C(F)(F)F)cs1)c1cccc(C(=O)c2cc3ccccc3o2)c1 [Example 29, (R)-2-[3-(benzofuran-2-carbonyl)phenyl]-N-(4-trifluoromethyl-2H-thiazol-2-yl)propionamide] | 40 ± 12 | – | –
33 | C[C@@H](C(=O)Nc1ccccn1)c1cccc(C(=O)C2CCCC2)c1 [Example 30, (R)-2-(3-cyclopentanecarbonylphenyl)-N-pyrid-2-ylpropionamide] | – | 51 ± 5 | –
34 | C[C@@H](C(=O)NO)c1cccc(C(=O)c2ccco2)c1 [Example 31, (R)-2-[3-(furan-2-carbonyl)phenyl]-N-hydroxypropionamide] | – | 70 ± 5 | –
35 | C[C@@H](C(=O)NO)c1cccc(C(=O)c2nccs2)c1 [Example 32, (R)-2-[3-(thiazole-2-carbonyl)phenyl]-N-hydroxypropionamide] | – | 30 ± 2 | –
36 | CC(NC(=O)[C@H](C)c1cccc(C(=O)c2ccco2)c1)C(=O)O (stereo partly drawn) [Example 33, 2-{(R)-2-[3-(furan-2-carbonyl)phenyl]propionylamino}propionic acid] | 40 ± 5 | – | –
37 | C[C@@H](C(=O)NCC(=O)O)c1cccc(C(=O)c2ccco2)c1 [Example 34] | 51 ± 7 | – | –
38 | C[C@@H](C(=O)NS(C)(=O)=O)c1cccc(C(=O)c2ccccc2)c1 [N-[(R)-2-(3-benzoylphenyl)propionyl]methanesulfonamide] | – | – | IL-8 (10^−8M) [1]: 38 ± 5; activity on the C5a induced PMN chemotaxis [2]: negligible activity; inhibitory activity on C5a induced PMN chemotaxis at high drug concentration [3]: moderate inhibitory activity; C5a (10^−6M) [3]: 20 ± 5
39 | CC(C)Cc1ccc([C@@H](C)C(=O)NS(C)(=O)=O)cc1 [N-[(R)-2-(4-isobutylphenyl)propionyl]methanesulfonamide, reference compound] | – | – | inhibitory activity on C5a [4]: do not exhibit any inhibitory activity; IL-8 (10^−8M) [1]: 65 ± 5
